In patent US20120129939A1, “POLYAMINE INHIBITORS FOR THE TREATMENT AND PREVENTION OF PARKINSON'S DISEASE” (priority 2009, published 2012):
Entries after “also recorded” stand apart in the source; their conditions may differ.

Assays:
[1] = system: yeast expressing α-synuclein (wildtype and A53T); conditions: YPGal medium, spermine 0, 0.2, 0.4 mM; Syn-WT and Syn-A53T versus empty vector strain
α-synuclein = α-synuclein (Homo sapiens, UniProt P37840); conditions: in vitro system, exogenously added (Antony 2003); cited from earlier work
SAT1 = SAT1 (Homo sapiens, UniProt P21673); conditions: literature; cited from earlier work
Chain of SAT1 (P21673 whole entry, the tested form may be a part): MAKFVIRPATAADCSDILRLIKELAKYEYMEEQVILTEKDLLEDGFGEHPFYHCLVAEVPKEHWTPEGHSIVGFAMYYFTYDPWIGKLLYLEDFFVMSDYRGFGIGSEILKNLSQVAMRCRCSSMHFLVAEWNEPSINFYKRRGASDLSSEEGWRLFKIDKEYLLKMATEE

[2] = system: transgenic mice (Line 61) expressing wildtype human α-synuclein; assay: α-Synuclein transgenic mice, intraventricular infusion, immunohistochemical analysis of α-synuclein accumulation and neurodegeneration; format: in vivo; conditions: for overall α-synuclein pathology / PD phenotype / neuronal accumulation of α-synuclein in the basal ganglia (mean α-synuclein cell pixel intensity, caudo-putamen) / dendritic complexity in the basal ganglia as detected by MAP2 (% of neuropil covered by MAP2 immunoreactive dendrites) / tyrosine hydroxylase (TH) fibers (TH corrected optical density in the caudo-putamen): infusion via osmotic minipumps six weeks; for neuronal accumulation of α-synuclein in the basal ganglia (mean α-synuclein cell pixel intensity, caudo-putamen): DENSPM 62 μM, Berenil 30 μM; for neuronal accumulation of α-synuclein in the basal ganglia (mean α-synuclein cell pixel intensity, caudo-putamen) / mean α-synuclein cell pixel intensity in the substantia nigra: compared to transgenic mice treated with PBS; for dendritic complexity in the basal ganglia as detected by MAP2 (% of neuropil covered by MAP2 immunoreactive dendrites) / tyrosine hydroxylase (TH) fibers (TH corrected optical density in the caudo-putamen): compared to syntgPBS; for mean α-synuclein cell pixel intensity in the substantia nigra: infusion via osmotic pumps six weeks
Text: α-Synuclein transgenic mice and infusion: For this study, heterozygous transgenic (tg) mice (Line 61) expressing wildtype human α-synuclein (hα-syn) under the regulatory control of the mThy1 promoter were used (Rockenstein, E. et al. 2002). These animals were selected because they display abnormal accumulation of detergent-insoluble hα-syn and develop hα-syn-immunoreactive inclusion like structures in the basal ganglia, cortex, and limbic system (Rockentein, E. et al. 2002). Furthermore, these animals also display neurodegenerative and motor deficits that mimic certain aspects of PD and Dementia with Lewy bodies (Fleming, S. et al. 2004). Infusions were performed as previously described (Veinbergs, I. et al. 2001). In order to evaluate the effects of the polyamine pathway, hα-syn tg mice (10-11 months old) received intraventricular infusions with a cannula implanted into the skull and connected to osmotic minipumps of either vehicle, Beneril, or DENSPM. A total of 15 hu-syn tg mice (n=5 per group) were used for these experiments. Mice were treated for six weeks; the compounds were dissolved in 0.9% NaCl at a concentration of 62 μM for DENSPM and 30 μM for Berenil at a pH of 7.2. Then, 200 μL of these solutions were filled into the osmotic minipump (Alzet) ensuring constant delivery ([…]). The minipump was implanted subcutaneously on the back under light anesthesia. An additional group of control non tg (n=5) mice were implanted with minipumps filled with vehicle only. All procedures were completed under the specifications set forth by the Institutional Animal Care and Use Committee.
Brains were removed and divided sagittally. One hemibrain was postfixed in phosphate-buffered 4% paraformaldehyde, pH 7.4, at 4° C. for 48 h and sectioned at 40 μm with a Vibratome 2000 (Leica) and placed in cryosolution, whereas the other hemibrain was snap frozen and stored at −70° C. for further analysis. Sections were first washed 3×5 minutes each in PBS. They were then pretreated with 1% Triton-X, 3% hydrogen peroxide in PBS for 15 minutes, washed again 3×5 min in PBS and blocked in 10% serum matching the animal the secondary antibody was raised in for 1 hour and then washed in PBS. Sections were then placed in primary antibody: mouse anti-TH, rabbit anti-(h) α-syn, mouse anti-MAP2 (Chemicon, (1:500)) overnight in 4° C. Sections were washed 3×5 min in PBS and then placed in biotynilated secondary antibody (1:100) (Vector Laboratories) for 2 hours. After washing again 3 times in PBS, sections were placed in 20% […] (DAB) (Vector Laboratories) for 20 seconds. The reaction with DAB was halted by immersing the sections in double distilled water. Sections were then mounted, dried and coverslipped with Entillin (Fisher Scientific). Sections for fluorescent immunohistochemistry were treated with mouse monoclonal anti-microtuble-associated protein 2 (MAP2, 1:50, Roche Molecular Biochemicals) primary antibody. This antibody was then detected with the fluorescein isothiocyanate (FITC)-conjugated anti-mouse secondary antibody (Vector Laboratories). Coverslips were air-dried overnight, mounted on slides with anti-fading media (Vectashield, Vector Laboratories), and imaged with the LSCM (MRC 1024, Bio-Rad). The immunolabeled blind-coded sections were imaged by LSCM (MRC1024, Bio-Rad) and analyzed with the Image 1.43 program (NIH), as previously described (Fleming, S. et al. 2004).

[3] = system: Murine L1210 leukemia cells; assay: Polyamine determinations (HPLC) in cultured cells treated with DFMO or DFMO analogs; format: cell-based; design: PUT (amount): unit not given beside the values; SPD (amount) / SPM (amount) / [PUT] (concentration) / [SPD] (concentration) / [SPM] (concentration) / 48 hr avg put / 48 hr avg spd: unit not given here; conditions: for 24 hr avg put / 24 hr avg spd / 24 hr avg spm / 48 hr avg put / 48 hr avg spd / 48 hr avg spm: average of 10, 50, 100 uM treatments; for 24 hr avg put / 24 hr avg spd / 24 hr avg spm: 24 hour treatment
Description: Cell Growth. […] After 24 or 48 h, cells were removed from tubes for counting and viability determinations. Cell number was determined by electronic particle counting (Model 2F Coulter Counter; Coulter Electron-ics, Hialeah, Fla.) and confirmed periodically with hemocytometer measurements. […] The percentage of control growth was determined as follows. Cell samples were washed twice in cold PBS, and an aliquot of […] was removed for polyamine determination. The cells were pelleted, and the PBS supernatant was carefully removed with a cotton swab. […] The supernatant was frozen at -20° C. until analysis by HPLC. […] The column temperature was maintained at 65° C. with water from a circulating bath. The column was eluted at a flow rate of 16 ml/h with an initial column pressure of 500 psi which decreased with increasing ionic strength of the elution buffer. […] The column was reequilibrated for 10 min with Buffer 1 prior to loading the next sample. The column eluate was derivatized with 0.05% o-phthalaldehyde (Durrum Chemical Corp.) in 0.4M borate buffer (pH 10.4) containing […] and 0.09% Brij 35. The o-phthalaldehyde reagent flow rate was 8 ml/h. The derivatized eluate was analyzed for polyamine content by passing it through the flow cell of a […] (Fluoro-Monitor; American Instrument Co., Silver Spring, Md.) with a fixed excitation wavelength of 360 nm and emission wavelength of […]. Data were analyzed using a Hewlett Packard Model […] automation system.

[4] = 10 uM treatment, 24 hr treatment
[5] = 10 uM treatment, 48 hour treatment
[6] = 50 uM treatment, 24 hr treatment
[7] = 50 uM treatment, 48 hour treatment
[8] = 100 uM treatment, 24 hr treatment
[9] = 100 uM treatment, 48 hour treatment

## NCCCNCCCCNCCCN [Spermine, spermine]
[1]
  toxicity of exogenous spermine (growth curves, OD600): more toxic
α-synuclein
  aggregation of α-synuclein: accelerate

## CC(=O)NCC(=O)O.CC(=O)NCC(=O)O.N=C(N)c1ccc(N=NNc2ccc(C(=N)N)cc2)cc1 [Berenil, diminazene aceturate]
SAT1
  SAT1 activity: reduces
[2]
  overall α-synuclein pathology / PD phenotype: worsened
  neuronal accumulation of α-synuclein in the basal ganglia (mean α-synuclein cell pixel intensity, caudo-putamen): increased
  dendritic complexity in the basal ganglia as detected by MAP2 (% of neuropil covered by MAP2 immunoreactive dendrites): worsened; also recorded: decrease
  tyrosine hydroxylase (TH) fibers (TH corrected optical density in the caudo-putamen): worsened; also recorded: decreased
  mean α-synuclein cell pixel intensity in the substantia nigra: increased

## CCNCCCNCCCNCCCNCC [DENSPM, N1, N11-diethylnorspermine]
SAT1
  SAT1 activity: increases
[2]
  overall α-synuclein pathology / PD phenotype: partially rescued; also recorded: partially improved
  neuronal accumulation of α-synuclein in the basal ganglia (mean α-synuclein cell pixel intensity, caudo-putamen): decreased
  dendritic complexity in the basal ganglia as detected by MAP2 (% of neuropil covered by MAP2 immunoreactive dendrites): ameliorated; also recorded: rescued
  tyrosine hydroxylase (TH) fibers (TH corrected optical density in the caudo-putamen): partially rescued; also recorded: increased
  mean α-synuclein cell pixel intensity in the substantia nigra: trending decrease

## NCCCCNCCCN [spermidine]
α-synuclein
  aggregation of α-synuclein: accelerate

## CCOC(=O)C(N)(CCCN)C(F)F (stereo not drawn) [DFMO Analog 1]
[3]; [4]
  PUT (amount): 14507
  SPD (amount): 1202403
  SPM (amount): 149654
  [PUT] (concentration): 0.007061
  [SPD] (concentration): 0.2484
  [SPM] (concentration): 0.4836
[3]; [5]
  PUT (amount): 43116
  SPD (amount): 1887299
  SPM (amount): 2659801
  [PUT] (concentration): 0.02099
  [SPD] (concentration): 2.316
  [SPM] (concentration): 8.595
[3]; [6]
  SPD (amount): 163914
  SPM (amount): 168544
  [PUT] (concentration): 0
  [SPD] (concentration): 0.2012
  [SPM] (concentration): 0.5447
[3]; [7]
  PUT (amount): 23355
  SPD (amount): 1774662
  SPM (amount): 4106905
  [PUT] (concentration): 0.01137
  [SPD] (concentration): 2.178
  [SPM] (concentration): 13.27
[3]; [8]
  SPD (amount): 377626
  SPM (amount): 500166
  [SPD] (concentration): 0.4635
  [SPM] (concentration): 1.616
[3]; [9]
  SPD (amount): 332304
  SPM (amount): 1568383
  [PUT] (concentration): 0
  [SPD] (concentration): 0.4078
  [SPM] (concentration): 5.068
[3]
  24 hr avg put: 0.002354
  24 hr avg spd: 0.3043
  24 hr avg spm: 0.8815
[3]; 48 hour treatment
  48 hr avg put: 0.01078
  48 hr avg spd: 1.634
  48 hr avg spm: 8.978

## CCOC(=O)C(CCCNC(=O)OC)(NC(=O)OC)C(F)F (stereo not drawn) [DFMO Analog 2]
[3]; [4]
  PUT (amount): 56963
  SPD (amount): 651020
  SPM (amount): 481606
  [PUT] (concentration): 0.02773
  [SPD] (concentration): 0.799
  [SPM] (concentration): 1.556
[3]; [5]
  PUT (amount): 124533
  SPD (amount): 3898235
  SPM (amount): 4032041
  [PUT] (concentration): 0.06062
  [SPD] (concentration): 4.784
  [SPM] (concentration): 13.03
[3]; [6]
  PUT (amount): 379546
  SPD (amount): 3615812
  SPM (amount): 2470785
  [PUT] (concentration): 0.1847
  [SPD] (concentration): 4.438
  [SPM] (concentration): 7.985
[3]; [7]
  PUT (amount): 34544
  SPD (amount): 848798
  SPM (amount): 693740
  [PUT] (concentration): 0.01681
  [SPD] (concentration): 1.042
  [SPM] (concentration): 2.242
[3]; [8]
  PUT (amount): 27933
  SPD (amount): 323941
  SPM (amount): 212917
  [PUT] (concentration): 0.0136
  [SPD] (concentration): 0.3976
  [SPM] (concentration): 0.6881
[3]; [9]
  PUT (amount): 7198
  SPD (amount): 231781
  SPM (amount): 236426
  [PUT] (concentration): 0.003504
  [SPD] (concentration): 0.2845
  [SPM] (concentration): 0.764
[3]
  24 hr avg put: 0.07535
  24 hr avg spd: 1.878
  24 hr avg spm: 3.41
[3]; 48 hour treatment
  48 hr avg put: 0.02698
  48 hr avg spd: 2.037
  48 hr avg spm: 5.345

## NCCC[C@](N)(C(=O)O)C(F)F [DFMO, α-difluoromethylornithine, reference compound]
[3]; [4]
  PUT (amount): 63429
  SPD (amount): 2369255
  SPM (amount): 2363841
  [PUT] (concentration): 0.03087
  [SPD] (concentration): 2.908
  [SPM] (concentration): 7.639
[3]; [5]
  SPD (amount): 254356
  SPM (amount): 373610
  [PUT] (concentration): 0
  [SPD] (concentration): 0.3122
  [SPM] (concentration): 1.207
[3]; [6]
  SPD (amount): 542711
  SPM (amount): 1315606
  [PUT] (concentration): 0
  [SPD] (concentration): 0.6661
  [SPM] (concentration): 4.251
[3]; [7]
  SPD (amount): 44007
  SPM (amount): 482723
  [PUT] (concentration): 0
  [SPD] (concentration): 0.05401
  [SPM] (concentration): 1.56
[3]; [8]
  SPD (amount): 42842
  SPM (amount): 98016
  [PUT] (concentration): 0
  [SPD] (concentration): 0.05258
  [SPM] (concentration): 0.3167
[3]; [9]
  SPD (amount): 220260
  SPM (amount): 7071485
  [PUT] (concentration): 0
  [SPD] (concentration): 0.2703
  [SPM] (concentration): 22.85
[3]
  24 hr avg put: 0.01029
  24 hr avg spd: 1.209
  24 hr avg spm: 4.069
[3]; 48 hour treatment
  48 hr avg put: 0
  48 hr avg spd: 0.2122
  48 hr avg spm: 8.54
